Results reported in US20120121591A1 (priority 2009, published 2012).

Legend:
Type in all cases: cell-based
[1] = system: IFN-g secretion from T cells in human whole blood; conditions: read-out: WB (IFNg) IC50 (nM, Avg)
hKv1.3 = hKv1.3 (Homo sapiens, UniProt P22001); test: cell-based; conditions: Kv1.3 (IWQ) IC50 (nM, Avg)
[2] = system: IL-2 secretion from T cells in human whole blood; conditions: read-out: WB (IL-2) IC50 (nM, Avg)

Chain of hKv1.3 (P22001 whole entry): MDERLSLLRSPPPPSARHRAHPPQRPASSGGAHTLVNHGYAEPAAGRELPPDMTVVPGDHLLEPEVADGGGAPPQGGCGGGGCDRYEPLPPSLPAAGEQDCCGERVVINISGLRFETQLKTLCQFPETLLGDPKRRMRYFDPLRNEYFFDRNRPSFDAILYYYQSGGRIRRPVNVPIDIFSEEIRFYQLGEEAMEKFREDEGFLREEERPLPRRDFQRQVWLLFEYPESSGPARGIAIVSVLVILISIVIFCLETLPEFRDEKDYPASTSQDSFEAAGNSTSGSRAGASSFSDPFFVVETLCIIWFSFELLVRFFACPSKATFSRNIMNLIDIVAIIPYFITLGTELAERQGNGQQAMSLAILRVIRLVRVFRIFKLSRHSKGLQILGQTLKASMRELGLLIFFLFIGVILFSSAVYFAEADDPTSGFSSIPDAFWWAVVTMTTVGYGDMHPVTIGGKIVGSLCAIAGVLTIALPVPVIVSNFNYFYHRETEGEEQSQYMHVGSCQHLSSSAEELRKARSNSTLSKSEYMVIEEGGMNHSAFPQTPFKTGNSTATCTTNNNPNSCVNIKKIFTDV

Compound	IC50 [1]	IC50 (hKv1.3)	IC50 [2]
CCCC[C@@H]1NC(=O)[C@H](CO)NC(=O)[C@H](Cc2c[nH]cn2)NC(=O)[C@H](CCCCN)NC(=O)[C@@H]2CSSC[C@@H]3NC(=O)[C@H]([C@@H](C)O)NC(=O)[C@H](CCCCN)NC(=O)[C@H](CCCNC(=N)N)NC(=O)[C@H](CSSC[C@H](NC(=O)[C@H](CCCNC(=N)N)NC(=O)[C@H](CO)NC(=O)[C@H](CCCCN)NC(=O)[C@@H]4CCCN4C(=O)[C@H]([C@@H](C)CC)NC(=O)[C@H]([C@@H](C)O)NC(=O)[C@H](CC(=O)O)NC(=O)[C@H]([C@@H](C)CC)NC(=O)[C@@H](NC(=O)[C@H](CO)NC(=O)[C@@H](N)CCCNC(=N)N)CSSC[C@@H](C(=O)N[C@@H](C)C(=O)O)NC(=O)[C@H]([C@@H](C)O)NC(=O)CNC3=O)C(=O)N[C@@H]([C@@H](C)O)C(=O)N[C@@H](C)C(=O)N[C@@H](Cc3ccccc3)C(=O)N[C@@H](CCCCN)C(=O)N2)NC(=O)[C@H](Cc2ccccc2)NC(=O)[C@H](CO)NC(=O)[C@H](CC(C)C)NC(=O)[C@H](CCCNC(=N)N)NC(=O)[C@H](Cc2ccc(O)cc2)NC(=O)[C@H](CCCCN)NC1=O [[Lys16,N1e21]ShK-Ala]	0.515 nM	33.3 nM	0.305 nM
CC[C@H](C)[C@@H]1NC(=O)[C@@H](NC(=O)[C@H](CO)NC(=O)[C@@H](N)CCCNC(=N)N)CSSC[C@@H](C(N)=O)NC(=O)[C@H]([C@@H](C)O)NC(=O)CNC(=O)[C@@H]2CSSC[C@@H]3NC(=O)[C@H](CCCCN)NC(=O)[C@H](Cc4ccccc4)NC(=O)[C@H](C)NC(=O)[C@H]([C@@H](C)O)NC(=O)[C@H](CSSC[C@H](NC(=O)[C@H](Cc4ccccc4)NC(=O)[C@H](CO)NC(=O)[C@H](CC(C)C)NC(=O)[C@H](CCCNC(=N)N)NC(=O)[C@H](Cc4ccc(O)cc4)NC(=O)[C@H](CCCCN)NC(=O)[C@H](C(C)C)NC(=O)[C@H](CO)NC(=O)[C@H](Cc4c[nH]cn4)NC(=O)[C@H](CCCCN)NC3=O)C(=O)N[C@@H](CCCNC(=N)N)C(=O)N[C@@H](CCCCN)C(=O)N[C@@H]([C@@H](C)O)C(=O)N2)NC(=O)[C@H](CCCNC(=N)N)NC(=O)[C@H](CO)NC(=O)[C@H](CCCCN)NC(=O)[C@@H]2CCCN2C(=O)[C@H]([C@@H](C)CC)NC(=O)[C@H]([C@@H](C)O)NC(=O)[C@H](CC(=O)O)NC1=O [[Lys16, VaI21]ShK-amide]	6.65 nM	0.344 nM	4.8 nM
CC[C@H](C)[C@@H]1NC(=O)[C@@H](NC(=O)[C@H](CO)NC(=O)[C@@H](N)CCCNC(=N)N)CSSC[C@@H](C(=O)O)NC(=O)[C@H]([C@@H](C)O)NC(=O)CNC(=O)[C@@H]2CSSC[C@@H]3NC(=O)[C@H](CCC(N)=O)NC(=O)[C@H](Cc4ccccc4)NC(=O)[C@H](C)NC(=O)[C@H]([C@@H](C)O)NC(=O)[C@H](CSSC[C@H](NC(=O)[C@H](Cc4ccccc4)NC(=O)[C@H](CO)NC(=O)[C@H](CC(C)C)NC(=O)[C@H](CCCNC(=N)N)NC(=O)[C@H](Cc4ccc(O)cc4)NC(=O)[C@H](CCCCN)NC(=O)[C@H](CCSC)NC(=O)[C@H](CO)NC(=O)[C@H](Cc4c[nH]cn4)NC(=O)[C@H](CCCCN)NC3=O)C(=O)N[C@@H](CCCNC(=N)N)C(=O)N[C@@H](CCCCN)C(=O)N[C@@H]([C@@H](C)O)C(=O)N2)NC(=O)[C@H](CCCNC(=N)N)NC(=O)[C@H](CO)NC(=O)[C@H](CCCCN)NC(=O)[C@@H]2CCCN2C(=O)[C@H]([C@@H](C)CC)NC(=O)[C@H](CCCNC(=N)N)NC(=O)[C@H](CC(=O)O)NC1=O [[Arg6]ShK]	0.4 nM	0.178 nM	0.246 nM
CC[C@H](C)[C@@H]1NC(=O)[C@@H](NC(=O)[C@H](CO)NC(=O)[C@@H](N)CCCNC(=N)N)CSSC[C@@H](C(=O)O)NC(=O)[C@H]([C@@H](C)O)NC(=O)CNC(=O)[C@@H]2CSSC[C@@H]3NC(=O)[C@H](CCC(N)=O)NC(=O)[C@H](Cc4ccccc4)NC(=O)[C@H](C)NC(=O)[C@H]([C@@H](C)O)NC(=O)[C@H](CSSC[C@H](NC(=O)[C@H](Cc4ccccc4)NC(=O)[C@H](CO)NC(=O)[C@H](CC(C)C)NC(=O)[C@H](CCCNC(=N)N)NC(=O)[C@H](Cc4ccc(O)cc4)NC(=O)[C@H](CCCCN)NC(=O)[C@H](CCSC)NC(=O)[C@H](CO)NC(=O)[C@H](Cc4c[nH]cn4)NC(=O)[C@H](CCCCN)NC3=O)C(=O)N[C@@H](CCCNC(=N)N)C(=O)N[C@@H](CCCCN)C(=O)N[C@@H]([C@@H](C)O)C(=O)N2)NC(=O)[C@H](CCCNC(=N)N)NC(=O)[C@H](CO)NC(=O)[C@H](CCCNC(=N)N)NC(=O)[C@@H]2CCCN2C(=O)[C@H]([C@@H](C)CC)NC(=O)[C@H]([C@@H](C)O)NC(=O)[C@H](CC(=O)O)NC1=O [[Arg9]ShK]	0.116 nM	0.096 nM	0.108 nM
CC[C@H](C)[C@@H]1NC(=O)[C@@H](NC(=O)[C@H](CO)NC(=O)[C@@H](N)CCCNC(=N)N)CSSC[C@@H](C(=O)O)NC(=O)[C@H]([C@@H](C)O)NC(=O)CNC(=O)[C@@H]2CSSC[C@@H]3NC(=O)[C@H](CCC(N)=O)NC(=O)[C@H](Cc4ccccc4)NC(=O)[C@H](C)NC(=O)[C@H]([C@@H](C)O)NC(=O)[C@H](CSSC[C@H](NC(=O)[C@H](Cc4ccccc4)NC(=O)[C@H](CO)NC(=O)[C@H](CC(C)C)NC(=O)[C@H](CCCNC(=N)N)NC(=O)[C@H](Cc4ccc(O)cc4)NC(=O)[C@H](CCCCN)NC(=O)[C@H](CCSC)NC(=O)[C@H](CO)NC(=O)[C@H](Cc4c[nH]cn4)NC(=O)[C@H](CCCCN)NC3=O)C(=O)N[C@@H](CCCNC(=N)N)C(=O)N[C@@H](CCCCN)C(=O)N[C@@H]([C@@H](C)O)C(=O)N2)NC(=O)[C@H](CCCNC(=N)N)NC(=O)[C@H](CO)NC(=O)[C@H](CCCCN)NC(=O)[C@H](CCCNC(=N)N)NC(=O)[C@H]([C@@H](C)CC)NC(=O)[C@H]([C@@H](C)O)NC(=O)[C@H](CC(=O)O)NC1=O [[Arg8]ShK]	1.42 nM	0.07 nM	0.187 nM
CC[C@H](C)[C@@H]1NC(=O)[C@@H](NC(=O)[C@H](CO)NC(=O)[C@@H](N)CCCNC(=N)N)CSSC[C@@H](C(=O)O)NC(=O)[C@H]([C@@H](C)O)NC(=O)CNC(=O)[C@@H]2CSSC[C@@H]3NC(=O)[C@H](CCC(N)=O)NC(=O)[C@H](Cc4ccccc4)NC(=O)[C@H](C)NC(=O)[C@H]([C@@H](C)O)NC(=O)[C@H](CSSC[C@H](NC(=O)[C@H](CCCCN)NC(=O)[C@H](CO)NC(=O)[C@H](CC(C)C)NC(=O)[C@H](CCCNC(=N)N)NC(=O)[C@H](Cc4ccc(O)cc4)NC(=O)[C@H](CCCCN)NC(=O)[C@H](CCSC)NC(=O)[C@H](CO)NC(=O)[C@H](Cc4c[nH]cn4)NC(=O)[C@H](CCCCN)NC3=O)C(=O)N[C@@H](CCCNC(=N)N)C(=O)N[C@@H](CCCCN)C(=O)N[C@@H]([C@@H](C)O)C(=O)N2)NC(=O)[C@H](CCCNC(=N)N)NC(=O)[C@H](CO)NC(=O)[C@H](CCCCN)NC(=O)[C@@H]2CCCN2C(=O)[C@H]([C@@H](C)CC)NC(=O)[C@H]([C@@H](C)O)NC(=O)[C@H](CC(=O)O)NC1=O [[Lys27]ShK]	11.8 nM	0.928 nM	3.48 nM
CC[C@H](C)[C@@H]1NC(=O)[C@@H](NC(=O)[C@H](CO)NC(=O)[C@@H](N)CCCNC(=N)N)CSSC[C@@H](C(=O)O)NC(=O)[C@H]([C@@H](C)O)NC(=O)CNC(=O)[C@@H]2CSSC[C@@H]3NC(=O)[C@H](CCC(N)=O)NC(=O)[C@H](Cc4ccccc4)NC(=O)[C@H](C)NC(=O)[C@H]([C@@H](C)O)NC(=O)[C@H](CSSC[C@H](NC(=O)[C@H](Cc4ccccc4)NC(=O)[C@H](CO)NC(=O)[C@H](CC(C)C)NC(=O)[C@H](C)NC(=O)[C@H](Cc4ccc(O)cc4)NC(=O)[C@H](CCCCN)NC(=O)[C@H](CCSC)NC(=O)[C@H](CO)NC(=O)[C@H](Cc4c[nH]cn4)NC(=O)[C@H](CCCCN)NC3=O)C(=O)N[C@@H](CCCNC(=N)N)C(=O)N[C@@H](CCCCN)C(=O)N[C@@H]([C@@H](C)O)C(=O)N2)NC(=O)[C@H](CCCNC(=N)N)NC(=O)[C@H](CO)NC(=O)[C@H](CCCCN)NC(=O)[C@@H]2CCCN2C(=O)[C@H]([C@@H](C)CC)NC(=O)[C@H]([C@@H](C)O)NC(=O)[C@H](CC(=O)O)NC1=O [[Ala24]ShK]	0.216 nM	0.062 nM	0.043 nM
CCC[C@@H]1NC(=O)[C@H](CO)NC(=O)[C@H](Cc2c[nH]cn2)NC(=O)[C@H](CCCCN)NC(=O)[C@@H]2CSSC[C@@H]3NC(=O)[C@H]([C@@H](C)O)NC(=O)[C@H](CCCCN)NC(=O)[C@H](CCCNC(=N)N)NC(=O)[C@H](CSSC[C@H](NC(=O)[C@H](CCCNC(=N)N)NC(=O)[C@H](CO)NC(=O)[C@H](CCCCN)NC(=O)[C@@H]4CCCN4C(=O)[C@H]([C@@H](C)CC)NC(=O)[C@H]([C@@H](C)O)NC(=O)[C@H](CC(=O)O)NC(=O)[C@H]([C@@H](C)CC)NC(=O)[C@@H](NC(=O)[C@H](CO)NC(=O)[C@@H](N)CCCNC(=N)N)CSSC[C@@H](C(=O)N[C@@H](C)C(=O)O)NC(=O)[C@H]([C@@H](C)O)NC(=O)CNC3=O)C(=O)N[C@@H]([C@@H](C)O)C(=O)N[C@@H](C)C(=O)N[C@@H](Cc3ccccc3)C(=O)N[C@@H](CCCCN)C(=O)N2)NC(=O)[C@H](Cc2ccccc2)NC(=O)[C@H](CO)NC(=O)[C@H](CC(C)C)NC(=O)[C@H](CCCNC(=N)N)NC(=O)[C@H](Cc2ccc(O)cc2)NC(=O)[C@H](CCCCN)NC1=O [[Lys16,Nva21]ShK-Ala]	0.307 nM	13.5 nM	0.164 nM
CC[C@H](C)[C@@H]1NC(=O)[C@@H](NC(=O)[C@H](CO)NC(=O)[C@@H](N)CCCNC(=N)N)CSSC[C@@H](C(N)=O)NC(=O)[C@H]([C@@H](C)O)NC(=O)CNC(=O)[C@@H]2CSSC[C@@H]3NC(=O)[C@H](CCCCN)NC(=O)[C@H](Cc4ccccc4)NC(=O)[C@H](C)NC(=O)[C@H]([C@@H](C)O)NC(=O)[C@H](CSSC[C@H](NC(=O)[C@H](Cc4ccccc4)NC(=O)[C@H](CO)NC(=O)[C@H](CC(C)C)NC(=O)[C@H](CCCNC(=N)N)NC(=O)[C@H](Cc4ccc(O)cc4)NC(=O)[C@H](CCCCN)NC(=O)[C@H](Cc4c[nH]c5ccccc45)NC(=O)[C@H](CO)NC(=O)[C@H](Cc4c[nH]cn4)NC(=O)[C@H](CCCCN)NC3=O)C(=O)N[C@@H](CCCNC(=N)N)C(=O)N[C@@H](CCCCN)C(=O)N[C@@H]([C@@H](C)O)C(=O)N2)NC(=O)[C@H](CCCNC(=N)N)NC(=O)[C@H](CO)NC(=O)[C@H](CCCCN)NC(=O)[C@@H]2CCCN2C(=O)[C@H]([C@@H](C)CC)NC(=O)[C@H]([C@@H](C)O)NC(=O)[C@H](CC(=O)O)NC1=O [[Lys16, Trp21]ShK-amide]	3.19 nM	0.782 nM	3.86 nM
